Source: US20200289522A1 (Shionogi & Co., Ltd., priority 2019, published 2020)
Read-outs that look alike come from different tables or passages of the source.

Key:
type B influenza virus = type: in vivo, human; conditions: for median time to improvement of influenza symptoms: BXM single dose 40/80 mg, oseltamivir 75 mg twice daily for 5 days
[1] = Plasma concentration after oral administration of prodrug Compound II-6 to rats under non-fasting conditions; type: in vivo
Text: FIGS. 1 and 2 show a result of measuring the plasma concentration of Compound III and
Compound II-6, respectively, after oral administration of prodrug Compound II-6 to rats under non-fasting conditions.

influenza virus = type: in vivo, human

Compound: CCOC(=O)C1=C[C@@H](OC(CC)CC)[C@H](NC(C)=O)[C@@H](N)C1 [oseltamivir, reference compound]
- median time to improvement of influenza symptoms (type B influenza virus; patients infected with type B influenza virus): 101.6 h

Compound: COC(=O)OCOc1c2n(ccc1=O)N([C@@H]1c3ccccc3SCc3c1ccc(F)c3F)[C@@H]1COCCN1C2=O [II-6, Baloxavir marboxil]
- concentration of Compound II-6 in plasma ([1]; non-fasting, oral II-6 0.3, 1, 3 and 10 mg/kg, all time points 0.25 h to 24 h, below limit of quantification): < 0.500 ng/mL
- conversion of prodrug to Compound III in vivo after administration ([1]; oral administration): metabolized promptly to Compound III

Compound: Baloxavir marboxil [II-6]
- median time to improvement of influenza symptoms (type B influenza virus; […]): 74.6 h
- change from baseline in an influenza virus titer [log 10(TCID50/mL)] by time, type B virus (type B influenza virus; […], by day 2, vs placebo and oseltamivir): statistically significantly superior to placebo and oseltamivir
- median difference in time to improvement of influenza symptoms, BXM vs placebo (type B influenza virus; type B influenza virus, generalized Wilcoxon test p-value=0.0138): -26.0 h
- median difference in time to improvement of influenza symptoms, BXM vs oseltamivir (type B influenza virus; type B influenza virus, generalized Wilcoxon test p-value=0.0251): -27.1 h
- primary endpoint (time to improvement of influenza symptoms) compared with placebo (influenza virus; BXM 40 or 80 mg single oral dose): statistically significant improvement
- change from baseline in an influenza virus titer [log 10(TCID50/mL)] by time (influenza virus; by day 2, vs placebo and oseltamivir): statistically significantly superior to placebo and oseltamivir
- Difference between BXM and placebo in Time to Improvement of Influenza Symptoms (influenza virus; difference of medians, generalized Wilcoxon test p-value <0.0001): −29.1
- Time to Improvement of Influenza Symptoms (influenza virus; median, BXM 40/80 mg single oral dose by body weight, N = 385, ITTI population): 73.2
- incidence of influenza-related complication: bronchitis (influenza virus; vs placebo): statistically signicantly superior to placebo
- incidence of influenza-related complication: sinusitis (influenza virus; vs placebo): statistically signicantly superior to placebo
- time to cessation of viral shedding by a virus titer (influenza virus; vs placebo and oseltamivir): statistically significantly superior to placebo and oseltamivir
- incidence of influenza-related complications, any complications (influenza virus; vs placebo, Fisher's exact test): statistically significantly superior to placebo
